Measured values reported in patent US9198420B2, “Rodenticidal norbormide analogues” (priority 2012, dated 2015).
Read-outs that look alike come from different tables or passages of the source. Marks after values point to notes of the source that are not given here.

How the values were obtained:
[1] = tested on: rat caudal artery; assay: Rat caudal artery ring contractile force (vasoconstrictory activity); set-up: species or system rat (male Wistar); settings: for Emax: Table 1, read-out: Vasoconstriction: maximum contractile effect as a % of 90 mM KCl contraction
In short: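 Endothelium-denuded caudal artery rings from male Wistar rats were held at 2 g resting tension in Tyrode solution (37° C, pH 7.35, 95% O2/CO2) and isometric force was recorded. Compounds were tested at 50 μM, with contraction expressed as percent of the 90 mM KCl response.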

[2] = tested on: Sprague Dawley rats; assay: Palatability (no-choice) trial, peanut butter bait; assay type: in vivo, rat (Sprague Dawley); settings: po, 1% w/w toxicant in peanut butter bait
Description: In the palatability trials, Sprague Dawley rats (ca. 250 g) were presented with 1% w/w compound (n=6) or 0.5% w/w compound (n=5) in a peanut butter bait, following 3 days ‘pre-baiting’ with a peanut butter formulation free of toxicant.

[3] = tested on: Sprague Dawley rats; assay: Palatability (choice) trial, peanut butter bait; assay type: in vivo, rat (Sprague Dawley); settings: 2 days
[4] = tested on: Sprague Dawley rats; assay: In vivo lethality, oral gavage; set-up: species or system rat (Sprague Dawley); settings: rat; for Time to Death (min) / Onset of Symptoms: mean time; for Onset of Symptoms: visual signs of distress consistent with NRB-like symptoms
Protocol: (§1) Sprague Dawley rats (150-200 g) were used to appraise the rodenticidal activity of the compounds put forward for in vivo evaluation. Briefly, prior to administration the compounds were dissolved in 0.2 M hydrochloric acid (5% DMSO overall), to the desired dose, and without delay either injected intravenously, via the tail, or orally gavaged. All treated animals were housed in a quiet room and monitored every minute (i.v) or every 15 min (oral) to verify early signs of toxicity.

[5] = tested on: Sprague Dawley rats; assay: In vivo lethality, intravenous injection via the tail; set-up: species or system rat (Sprague Dawley); settings: rat
Protocol: as §1

[6] = n = 6, 3 male and 3 female rats, Table 11, read-out: No of deaths (converted)
[7] = choice of EPA diet (20 g) and bait with 1% w/w toxicant (20 g), n = 2, Table 15

Row | Structure (SMILES) | melting point | Emax [1] | Vasoconstriction: maximum contractile effect as a % of 90 mM KCl contraction ([1]; Table 4, pre-cleavage, n = 3) | also measured
1 | CC(C)(C)C(=O)OCN1C(=O)C2C3C=C(C(O)(c4ccccc4)c4ccccn4)C(C3=C(c3ccccc3)c3ccccn3)C2C1=O (stereo not drawn) [Compound 8, 5-(α-Hydroxy-α-2-pyridylbenzyl)-N-pivaloyloxymethyl-7-(α-2-pyridylbenzylidene)-5-norbornene-2,3-dicarboximide] | 95 to 98 °C | ≥ 132% | ≧132% | –
2 | CCCC(=O)OCN1C(=O)C2C3C=C(C(O)(c4ccccc4)c4ccccn4)C(C3=C(c3ccccc3)c3ccccn3)C2C1=O (stereo not drawn) [Compound 9, N-Butanoyloxymethyl-5-(α-hydroxy-α-2-pyridylbenzyl)-7-(α-2-pyridylbenzylidene)-5-norbornene-2,3-dicarboximide] | 68 to 79 °C | 86% | 86% | –
3 | O=C(OCN1C(=O)C2C3C=C(C(O)(c4ccccc4)c4ccccn4)C(C3=C(c3ccccc3)c3ccccn3)C2C1=O)c1ccccc1 (stereo not drawn) [Compound 12, N-Benzoyloxymethyl-5-(α-hydroxy-α-2-pyridylbenzyl)-7-(α-2-pyridylbenzylidene)-5-norbornene-2,3-dicarboximide] | 94 to 96 °C | ≥ 132% | ≧132% | –
4 | COc1ccccc1C(=O)OCN1C(=O)C2C3C=C(C(O)(c4ccccc4)c4ccccn4)C(C3=C(c3ccccc3)c3ccccn3)C2C1=O (stereo not drawn) [Compound 13, 5-(α-Hydroxy-α-2-pyridylbenzyl)-N-o-methoxybenzoyloxymethyl-7-(α-2-pyridylbenzylidene)-5-norbornene-2,3-dicarboximide] | 83 to 88 °C | 90% | 90% | –
5 | COc1cccc(C(=O)OCN2C(=O)C3C4C=C(C(O)(c5ccccc5)c5ccccn5)C(C4=C(c4ccccc4)c4ccccn4)C3C2=O)c1 (stereo not drawn) [Compound 14, 5-(α-Hydroxy-α-2-pyridylbenzyl)-N-m-methoxybenzoyloxymethyl-7-(α-2-pyridylbenzylidene)-5-norbornene-2,3-dicarboximide] | 171 to 180 °C | 0% | 0% | –
6 | COc1ccc(C(=O)OCN2C(=O)C3C4C=C(C(O)(c5ccccc5)c5ccccn5)C(C4=C(c4ccccc4)c4ccccn4)C3C2=O)cc1 (stereo not drawn) [Compound 15, 5-(α-Hydroxy-α-2-pyridylbenzyl)-N-p-methoxybenzoyloxymethyl-7-(α-2-pyridylbenzylidene)-5-norbornene-2,3-dicarboximide] | 94 to 112 °C | 0% | 0% | –
7 | O=C(CCc1ccccc1)OCN1C(=O)C2C3C=C(C(O)(c4ccccc4)c4ccccn4)C(C3=C(c3ccccc3)c3ccccn3)C2C1=O (stereo not drawn) [Compound 18, N-Dihydrocinnamoyloxymethyl-5-(α-hydroxy-α-2-pyridylbenzyl)-7-(α-2-pyridylbenzylidene)-5-norbornene-2,3-dicarboximide] | 89 to 94 °C | 13% | 13% | –
8 | COc1ccccc1C=CC(=O)OCCN1C(=O)C2C3C=C(C(O)(c4ccccc4)c4ccccn4)C(C3=C(c3ccccc3)c3ccccn3)C2C1=O (stereo not drawn) [Compound 124, 5-(α-Hydroxy-α-2-pyridylbenzyl)-N-[2′-(2″-methoxycinnamoyloxy)ethyl]-7-(α-2-pyridylbenzylidene)-5-norbornene-2,3-dicarboximide] | 101 to 108 °C | 23% | – | –
9 | O=C(C=Cc1ccc(OC(F)(F)F)cc1)OCCN1C(=O)C2C3C=C(C(O)(c4ccccc4)c4ccccn4)C(C3=C(c3ccccc3)c3ccccn3)C2C1=O (stereo not drawn) [Compound 127, 5-(α-Hydroxy-α-2-pyridylbenzyl)-7-(α-2-pyridylbenzylidene)-N-[2′-(4″-trifluoromethoxycinnamoyloxy)ethyl]-5-norbornene-2,3-dicarboximide] | 100 to 105 °C | 0% | 0% | –
10 | O=C(C=Cc1ccc([N+](=O)[O-])cc1)OCCN1C(=O)C2C3C=C(C(O)(c4ccccc4)c4ccccn4)C(C3=C(c3ccccc3)c3ccccn3)C2C1=O (stereo not drawn) [Compound 130, 5-(α-Hydroxy-α-2-pyridylbenzyl)-N-[2′-(4″-nitrocinnamoyloxy)ethyl]-7-(α-2-pyridylbenzylidene)-5-norbornene-2,3-dicarboximide] | 105 to 110 °C | 20% | – | –
11 | COc1cc(C=CC(=O)OCCN2C(=O)C3C4C=C(C(O)(c5ccccc5)c5ccccn5)C(C4=C(c4ccccc4)c4ccccn4)C3C2=O)cc(OC)c1OC (stereo not drawn) [Compound 133, 5-(α-Hydroxy-α-2-pyridylbenzyl)-7-(α-2-pyridylbenzylidene)-N-[2′-(3″,4″,5″-trimethoxycinnamoyloxy)ethyl]-5-norbornene-2,3-dicarboximide] | 109 to 113 °C | 30% | – | –
12 | O=C(C=Cc1ccc(Cl)c(Cl)c1)OCCN1C(=O)C2C3C=C(C(O)(c4ccccc4)c4ccccn4)C(C3=C(c3ccccc3)c3ccccn3)C2C1=O (stereo not drawn) [Compound 134, N-[2′-(3″,4″-Dichlorocinnamoyloxy)ethyl]-5-(α-hydroxy-α-2-pyridylbenzyl)-7-(α-2-pyridylbenzylidene)-5-norbornene-2,3-dicarboximide] | 99 to 104 °C | 0% | 0% | –
13 | Cc1ccc(CC(=O)OCN2C(=O)C3C4C=C(C(O)(c5ccccc5)c5ccccn5)C(C4=C(c4ccccc4)c4ccccn4)C3C2=O)cc1 (stereo not drawn) [Compound 324, 5-(α-Hydroxy-α-2-pyridylbenzyl)-N-4-methylphenylacetoyloxymethyl-7-(α-2-pyridylbenzylidene)-5-norbornene-2,3-dicarboximide] | – | 17% | 17% | mortality at 1 % [2, 6]: 100%; No of deaths [3, 7]: 5/12; Time to Death (min) ([4]; 20 mg/Kg): 60^d min; Onset of Symptoms ([4]; 20 mg/Kg): 15 min; In vivo lethality (oral) ([4]; 20 mg/Kg, n = 2): yes^h,i; In vivo lethality (oral) ([4]; 40 mg/Kg, n = 2): yes^h,i
14 | O=C1NC(=O)C2C3C(C(O)(c4ccccc4)c4ccccn4)=CC(C3=C(c3ccccc3)c3ccccn3)C12 (stereo not drawn) [NRB, 5-(α-Hydroxy-α-2-pyridylbenzyl)-7-(α-2-pyridylbenzylidene)-5-norbornene-2,3-dicarboximide, reference compound] | – | 132% | – | Vasoconstriction: maximum contractile effect as a % of 90 mM KCl contraction ([1]; Table 5, compounds of formula (III)): ^aMaximum contractile effect as a % of 90 mM KCl contraction (rat caudal artery); stereoisomeric mixture of NRB = 132%.; Vasoconstriction: maximum contractile effect as a % of 90 mM KCl contraction ([1]; Table 7, compounds of formula (V)): ^aMaximum contractile effect as a % of 90 mM KCl contraction (rat caudal artery); stereoisomeric mixture of NRB = 132%.; No of deaths [3, 7]: 5/12; No of deaths ([3]; choice of EPA diet (20 g) and bait with 1% w/w toxicant (20 g), n = 12, Table 14): 2/12; No of deaths ([3]; choice of standard lab pellets (20 g) and bait with 1% w/w toxicant (20 g), n = 12, Table 13): 5/12
15 | O=C1NC(=O)C2C3C(C(O)(c4ccccc4)c4ccccn4)=CC(C3=C(c3ccccc3)c3ccccn3)C12 (stereo not drawn) [endo-NRB, 5-(α-Hydroxy-α-2-pyridylbenzyl)-7-(α-2-pyridylbenzylidene)-5-norbornene-2,3-dicarboximide, reference compound] | – | – | 132% | mortality at 1 % [2, 6]: 66.7%; mortality at 1 % ([2]; n = 6, 3 male and 3 female rats, Table 12, read-out: No of deaths (converted)): 50%; mortality at 1 % ([2]; n = 6, male rats only, Table 10, read-out: No of deaths (converted)): 50%; In vivo lethality (i.v.) ([5]; 10 mg/Kg, n = 2): yes^f,g; In vivo lethality (i.v.) ([5]; 10 mg/Kg, n = 2, Table 6): yes^e,f; In vivo lethality (i.v.) ([5]; 20 mg/Kg, n = 2): yes^f,g; In vivo lethality (i.v.) ([5]; 20 mg/Kg, n = 2, Table 6): yes^e,f; In vivo lethality (i.v.) ([5]; 20 mg/Kg, n = 3, Table 8): yes^b; Vasoconstriction: maximum contractile effect as a % of 90 mM KCl contraction ([1]; n = 3, Table 8): 132%; Vasoconstriction: maximum contractile effect as a % of 90 mM KCl contraction ([1]; n = 3, pre-cleavage, Table 6): 132%; Time to Death (min) ([4]; 20 mg/Kg): 35^d min; Onset of Symptoms ([4]; 20 mg/Kg): 5 min; In vivo lethality (oral) ([4]; 20 mg/Kg, n = 2): yes^h,i; In vivo lethality (oral) ([4]; 20 mg/Kg, n = 2, Table 6): yes^g,h; In vivo lethality (oral) ([4]; 20 mg/Kg, n = 3, Table 8): yes^c,d; In vivo lethality (oral) ([4]; 40 mg/Kg, n = 2): yes^h,i; In vivo lethality (oral) ([4]; 40 mg/Kg, n = 2, Table 6): yes^g,h; In vivo lethality (oral) ([4]; 40 mg/Kg, n = 3, Table 8): yes^c,d
